The assay relates to STZ induced diabetic rats. The assay can be described thus: Study No 2: blood glucose in STZ induced diabetic rats (HCQ with vildagliptin and saxagliptin). It counts as in vivo, Wistar rats. As to conditions: for Plasma glucose concentration: oral.

Each structure is given as a SMILES string.

Protocol: In this experiment 96 Wistar rats weighing 150-200 g of either sex were divided randomly into 16 groups consisting of 6 rats each. The study drugs were dissolved in water/suspended in vehicle [0.1% w/v suspension of Tween 80 and carboxymethylcellulose (CMC) in water] and administered orally for 28 days. Group 1 (normal vehicle control) consisted of normal rats that neither received Streptozotocin (STZ) nor any test drug; Group 2 served as Streptozotocin induced diabetic control [Diabetes was induced in rats by single administration of Streptozotocin (55 mg/kg/i.p.) dissolved in 0.1 M-citrate buffer, pH 4.5]. Forty-eight hours later, blood samples were collected and glucose levels were determined to confirm the development of diabetes. Only animals showing hyperglycaemia (blood glucose levels>250 mg/dl) were considered as diabetic and received vehicle orally; Group 3 was diabetic rats treated with hydroxychloroquine (HCQ) (22.5 mg/kg); Group 4 was diabetic rats treated with HCQ (45 mg/kg), Group 5 was diabetic rats treated with vildagliptin (VG) 6 mg/kg; Group 6 was diabetic rats treated with VG 12 mg/kg; Group 7 was diabetic rats treated with HCQ 22.5 mg/kg+VG 12 mg/kg and Group 8 was diabetic rats treated with combination of HCQ 45 mg/kg and VG 6 mg/kg; Group 9 was diabetic rats treated with saxagliptin (SG) 0.3 mg/kg; Group 10 was diabetic rats treated with Saxagliptin (SG) 0.6 mg/kg; Group 11 was diabetic rats treated with combination of HCQ 45 mg/kg+SG 0.3 mg/kg; Group 12 was diabetic rats treated with combination of HCQ 22.5 mg/kg+SG 0.6 mg/kg; Group 13 was diabetic rats treated with combination of HCQ 22.5 mg/kg and VG 6 mg/kg; Group 14 was diabetic rats treated with combination of HCQ 45 mg/kg and VG 12 mg/kg; Group 15 was diabetic rats treated with combination of HCQ 22.5 mg/kg+SG 0.3 mg/kg; Group 16 was diabetic rats treated with combination of HCQ 45 mg/kg+SG 0.6 mg/kg.
Blood glucose level was measured in normal and experimental rats at 0, 7th, 14th, 21st and 28th day of administration.

As to `CCN(CCO)CCCC(C)Nc1ccnc2cc(Cl)ccc12` (centres unmarked) [HCQ, Hydroxychloroquine], the Plasma glucose concentration worked out at 292.17 ± 26.12 mg/dL (Day 0, HCQ 22.5, VG 6, SG 0.3 mg/kg alone, HCQ+VG 22.5+6, HCQ+SG 22.5+0.3 mg/kg); 305.67 ± 27.14 mg/dL (Day 0, HCQ 45, VG 12, SG 0.6 mg/kg alone, HCQ+VG 45+12, HCQ+SG 45+0.6 mg/kg); 278 ± 22.59 mg/dL (Day 7, HCQ 22.5, VG 6, SG 0.3 mg/kg alone, HCQ+VG 22.5+6, HCQ+SG 22.5+0.3 mg/kg); 265.5 ± 8.87 mg/dL (Day 7, HCQ 45, VG 12, SG 0.6 mg/kg alone, HCQ+VG 45+12, HCQ+SG 45+0.6 mg/kg); 269.33 ± 11.45 mg/dL (Day 14, HCQ 22.5, VG 6, SG 0.3 mg/kg alone, HCQ+VG 22.5+6, HCQ+SG 22.5+0.3 mg/kg); 266.5 ± 15.86 mg/dL (Day 14, HCQ 45, VG 12, SG 0.6 mg/kg alone, HCQ+VG 45+12, HCQ+SG 45+0.6 mg/kg). The Plasma glucose concentration is, setting by setting: (Day 21, HCQ 22.5, VG 6, SG 0.3 mg/kg alone, HCQ+VG 22.5+6, HCQ+SG 22.5+0.3 mg/kg) 266.67 ± 24.68 mg/dL; (Day 21, HCQ 45, VG 12, SG 0.6 mg/kg alone, HCQ+VG 45+12, HCQ+SG 45+0.6 mg/kg) 265.83 ± 9.22 mg/dL; (Day 28, HCQ 22.5, VG 6, SG 0.3 mg/kg alone, HCQ+VG 22.5+6, HCQ+SG 22.5+0.3 mg/kg) 266.5 ± 11.33 mg/dL; (Day 28, HCQ 45, VG 12, SG 0.6 mg/kg alone, HCQ+VG 45+12, HCQ+SG 45+0.6 mg/kg) 244.5 ± 18.1 mg/dL. Moreover, the “blood glucose levels as compared to diabetic control group” value (alone at therapeutic equivalent doses, day 28) is given as “significant improvement”.

These data come from patent US20140128402A1, “PHARMACEUTICAL COMBINATION” (IPCA Laboratories Limited, priority 2011, published 2014).
